According to patent publication US5254801A, “Heterologous dominant conditional lethal gene which is a phosphonate monoester hydrolase and use thereof in plants” (Monsanto Company, priority 1990, dated 1993):

Assays:
[1] = Storage stability of radioactive glyceryl glyphosate; type: physicochemical; conditions: radioactive compound stored at -20° C. over a period of 3 months
LBAA = experiment: In vivo (3-14C-) glyceryl glyphosate hydrolysis assay in whole cells; type: cell-based; conditions: strain LBAA; three hour incubation, 30° C.
Description: (§1) Bacteria which grew in this medium using glyceryl glyphosate as a sole phosphate source had the ability to cleave both the ester and the phosphonate bond to release the free phosphate. For these bacteria to be useful in the present invention, the first step in the mineralization of glyceryl glyphosate needed is the hydrolysis of the phosphonate ester. Each of the three bacteria which utilized glyceryl glyphosate as a phosphate source were then assayed for a phosphonate monoester hydrolase activity using an in vivo (3-^14 C-) glyceryl glyphosate assay. A 150 ml culture of each bacteria was grown in DF minimal medium with 0.2 mM HK2 PO4 as a phosphate source in a 500 ml flask, 30° C., with shaking. The bacteria were pelleted by centrifugation at 5,000×g for 10 min and resuspended at 10 mg fresh weight/ml. An assay mix included 50 μl cells plus 10 μl (3-^14 C-) glyceryl glyphosate (10,000 cpm/μl) and kept at 30° C. with shaking. After a three hour incubation period, the cells were pelleted in a microfuge and the supernatant injected onto an HPLC anion exchange column and glyphosate analyzed as described above. The pellet was washed twice with 1 ml 10 mM HEPES, pH 7.0, and resuspended in 25 μl buffer. The cells were lysed with 25 μl quench and the debris pelleted in a microfuge. The pellet extract was then analyzed for glyphosate product as described above. […]

T10 = experiment: as above; type: cell-based; conditions: strain T10; three hour incubation, 30° C.
Description: as §1

[2] = test system: GUS vector control Arabidopsis calli; experiment: Callus viability on SIM medium with glyceryl glyphosate; type: cell-based
Description: (§2) Arabidopsis was cultured and transformed essentially as described by Valvekens et al., 1988. Arabidopsis ecotype RLD seeds were sterilized in 5% chlorox, 0.05%. Tween20 for 20 min, washed with sterile H2 O and plated on MSO medium (MS salts with minimal organics (Sigma), 0.5 g MES/l pH 5.7, 1% sucrose and 0.8% agar). After 3 weeks the roots were cut away from the shoots and precultured 3 days on callus inducing medium (CIM; Gamborg's B5 salts (Sigma), 2% glucose, 0.5 g/l MES, pH 5.7, 0.8% agar, 0.5 mg/l 2,4-D and 0.05 mg/l kinetin). The roots were than grouped in small bundles of 5-7 roots and cut into 0.5 cm pieces. The root pieces were mixed with a fresh overnight culture of ABI Agrobacterium containing a previously described plant gene expression vector diluted 1:20 in liquid MSO (without agar). After two minutes, the roots were transferred to fresh CIM plates for a two day co-culture. After co-culture, the root pieces were washed 2X with liquid MSO medium and plated on shoot inducing medium (SIM; Gamborg's B5 salts, 2% glucose, 0.5 g/l MES, pH 5.7, 5 mg/l N^6 -(2-isopentenyl)adenine, 0.15 mg/l indole-3-acetic acid, 500 mg/l carbenicillin, 100 mg/l kanamycin and 0.8% agar. Callus which continued to grow and remain green were transformed to fresh SIM after two weeks. As rosettes began to form, they were cut away from the callus and transferred to MSO medium with 1 mg/l indole-3-butyric acid in sterile sundae cups to initiate root formation. After the plants had formed roots they were transferred to soil and grown to maturity to obtain seed.
(§3) Arabidopsis calli transformed with either pMON9429 or pMON9443 which were expressing the selectable marker NPT-II gene as evidenced by growth on 100 μg/ml kanamycin were then evaluated for pehA expression. The calli were transferred to SIM medium containing 100 μg/ml kanamycin and 1 mM glyceryl glyphosate. After 4 weeks, calli were scored for growth and ability to initiate shoots and leaves (+) or for necrosis (-).

[3] = test system: pMON9429 transgenic Arabidopsis calli (pehA:1); experiment: as above; type: cell-based
Description: as §2, §3

[4] = test system: pMON9443 transgenic Arabidopsis calli (pehA:2); experiment: as above; type: cell-based
Description: as §2, §3

[5] = 1 mM glyceryl glyphosate, 4 weeks, 12 lines scored
[6] = 1 mM glyceryl glyphosate, 4 weeks, 6 lines scored

For `O=C(O)CNCP(=O)(O)OCC(O)CO` (stereo not drawn) [glyceryl glyphosate, glycine, N-([hydroxy (2,3 dihydroxy propoxy)phosphonyl]methyl)], the Storage stability [1] was “unstable”, the “In vivo Hydrolysis of Glyceryl Glyphosate into Glyphosate” value (LBAA) was “Yes” and the “In vivo Hydrolysis of Glyceryl Glyphosate into Glyphosate” value (T10) was “Yes”. The “Viability Score: Growth” value [2, 5] was 12 number of lines, the “Viability Score: Necrosis” value [2, 5] was 0 number of lines and the “Callus growth on protoxin (in words)” value ([2]; 1 mM protoxin, control calli) was “able to grow”. For the same compound, the “Viability Score: Growth” value [3, 6] was 1 number of lines, the “Viability Score: Necrosis” value [3, 6] was 5 number of lines and the “Callus phenotype on protoxin (in words)” value ([3]; medium containing glyceryl glyphosate, pMON9429 calli) was “lethality”. For the same compound, the “Viability Score: Growth” value [4, 6] was 0 number of lines, the “Viability Score: Necrosis” value [4, 6] was 6 number of lines and the “Callus phenotype on protoxin (in words)” value ([4]; medium containing glyceryl glyphosate, pMON9443 calli) was “lethality”.
